Assay results: US20110263693A1, “CELASTROL, GEDUNIN, AND DERIVATIVES THEREOF AS HSP90 INHIBITORS” (DANA-FARBER CANCER INSTITUTE, INC., priority 2006, published 2011)

Experiments:
[1] = tested on: LNCaP cells; assay: Soft agar assay of anchorage-independent growth; format: cell-based; settings: for colony size in soft agar: LNCaP; for anchorage-independent growth of LNCaP cells (colony number): soft agar, celastrol 0.625 μM, compared with bicalutamide (casodex)
Description: (§1) To investigate the cellular consequences of celastrol- and gedunin-mediated inhibition, we assessed whether celastrol and gedunin activity results in decreased cell growth, consistent with AR inhibition. […] Second, the compounds' effects on anchorage-independent growth of LNCaP cells was assayed in soft agar (FIG. 6D).
(§2) Adherent cell growth was measured by luminescent assay of ATP level (CellTiterGlo, Promega). LNCaP cells were grown in charcoal-stripped media for 2 days prior to simultaneous treatment with 1 nM R1881 and the relevant compound. Synergy was assessed by analyzing the IC50 of one drug over a range of concentrations of the other drug and vice versa. The resulting concentration pairs were visualized by isobologram (Gessner, 1995). Anchorage independence was measured by soft agar assay (Hahn et al., 1999). Compounds were added to both agar layers. Colonies were scored after 3 weeks.

[2] = tested on: androgen-responsive gene expression in LNCaP cells; assay: Genome-wide gene expression profiling with hierarchical clustering of androgen-responsive genes; format: cell-based; settings: androgen-stimulated LNCaP, celastrol 1.25 μM, gedunin 20 μM, 24 hr
Description: We next asked whether celastrol and gedunin inhibit the broader program of androgen signaling beyond the GE-HTS signature. To address this question, we compared the genome-wide gene expression profiles of androgen-stimulated LNCaP cells treated with celastrol (1.25 μM) and gedunin (20 μM) for 24 hr to those of androgen-stimulated and androgen-deprived cells.
The mRNA expression profiles of celastrol- and gedunin-treated cells were determined by Affymetrix U133A microarray analysis in triplicate. RNA was isolated by Trizol extraction from LNCaP cells treated with vehicle, 1.25 μM celastrol, or 20 μM gedunin (1) for 24 hr in RPMI, 10% charcoal-stripped FBS, and 1 nM R1881 or vehicle, following androgen deprivation in charcoal-stripped media for 2 days, and (2) for 6 hr in RPMI with 10% FBS. IVT, labeling, hybridization, and washing were carried out on the Affymetrix High-Throughput Array platform using HT_HG-U133A preproduction arrays (early access version; part number 520276) for all but the 24 hr gedunin samples. U133A version 2 arrays were used for the 24 hr gedunin samples for technical reasons. Raw data were processed by RMA. For hierarchical clustering, a 169 probe set of androgen-regulated genes was defined and used to perform average linkage clustering (see below). […]

[3] = tested on: mouse models of arthritis; settings: purified celastrol, 1-3 mg/kg daily; cited from earlier work
[4] = tested on: FLT3; assay: Western blot of HSP90 client FLT3 level; format: cell-based, human; settings: for protein level of FLT3: 24 hr, several cell lines, concentration-dependent
Description: (§3) To more broadly establish the effects of celastrol and gedunin on the HSP90 pathway, we tested whether these compounds decrease the protein levels of other HSP90 clients.
(§4) Celastrol (Calbiochem) and gedunin (Gaia Chemicals) were solubilized in DMSO. LNCaP.FGC cells (ATCC) were grown in RPMI 1640 (ATCC) with 10% FBS. Ba/F3 cells stably expressing human FLT3, EGFR, and BCR-ABL1 were grown in RPMI 1640, 10% FBS, and 2 ng/ml IL-3. SKBr3 cells were grown in a 1:1 DME:F12 plus 10% FBS.

[5] = tested on: LNCaP prostate cancer cell; assay: Apoptosis induction in LNCaP cells; format: cell-based; settings: at higher concentrations
From the text: (§5) We also addressed whether celastrol and gedunin activity results in decreased cell growth consistent with inhibition of AR and other HSP90 clients. […] Below this concentration, an intermediate viability inhibition is seen.

[6] = tested on: LNCaP cells; assay: Synergy with HSP90 inhibitors on cell growth by ATP level (isobologram); format: cell-based; settings: 24 hr, low concentrations
From the text: If celastrol and gedunin act on HSP90 function via a distinct mechanism from HSP90 ATP-binding site inhibition (Bagatell et al., 2005), they might act synergistically with existing HSP90 inhibitors. We therefore tested the combinatorial effects of these compounds with HSP90 inhibitors on HSP90 client signaling and viability. […] Celastrol and gedunin therefore act synergistically with existing modes of HSP90 ATP-binding site inhibition to inhibit HSP90 client signaling and viability in a cellular context, consistent with their inhibition of HSP90 via a distinct mechanism.
as §2

[7] = biological target: HSP90α (Homo sapiens, UniProt P07900); assay: Geldanamycin competition assay (Cy3B-geldanamycin fluorescence polarization); format: binding; set-up: purchased Stressgen SPP776 / SPP-776; settings: celastrol and gedunin at concentrations up to ~100 μM
Description: We first tested whether celastrol or gedunin could compete with Cy3B-geldanamycin for binding to the ATP-binding pocket of purified HSP90α by fluorescence polarization assay (Kim et al., 2004, Llauger-Bufi et al., 2003).
The geldanamycin competition assay was performed as described (He et al., 2006, Kim et al., 2004), except that Cy3B-geldanamycin rather than BODIPY-geldanamycin was used as described herein.
Measurements were taken in black 96-well microtiter plates (Coming #3650). The assay buffer (HFB) contained 20 mM HEPES (K) pH 7.3, 50 mM KCl, 5 mM MgCl2, 20 mM Na2MoO4, 0.01% NP40. Before each use, 0.1 mg/mL bovine gamma globulin (BGG) (Panvera Corporation, Madison, Wis.) and 2 mM DTT (Fisher Biotech, Fair Lawn, N.J.) were freshly added. GM-cy3B was synthesized as previously reported and was dissolved in DMSO to form 10 μM solutions. Cell lysates were prepared rupturing cellular membranes by freezing at −70° C. and dissolving the cellular extract in HFB with added protease and phosphotase inhibitors. Saturation curves were recorded in which GM-cy3B (3 nM) was treated with increasing amounts of cellular lysates.

[8] = tested on: EGFR; assay: Western blot of HSP90 client EGFR level; format: cell-based, human; settings: 24 hr, several cell lines, concentration-dependent
Description: as §3, §4

[9] = tested on: SKBR breast cancer cell line; assay: Apoptosis induction in SKBR cells; format: cell-based; settings: to a greater extent than existing HSP90 ATP binding site inhibitors
[10] = tested on: LNCaP cells; assay: Adherent cell growth by luminescent assay of ATP level (CellTiterGlo); format: cell-based; settings: for LNCaP cell viability at higher concentrations: in the presence of androgen, above EC50 of androgen signaling inhibition; for adherent growth of androgen-stimulated LNCaP cells: luminescent assay of ATP levels
Description: as §1, §2, §5

Structure (SMILES) | colony size in soft agar [1] | anchorage-independent growth of LNCaP cells (colony number) [1] | broader program of androgen signaling (genome-wide expression, hierarchical clustering) [2] | bioactivity in mouse models of arthritis [3] | protein level of FLT3 [4] | apoptosis in LNCaP cells [5] | combined effect with geldanamycin and 17-AAG on cell growth (ATP level) [6] | competition with Cy3B-geldanamycin for binding to the ATP-binding pocket of HSP90α [7] | protein level of EGFR [8] | apoptosis in SKBR breast cancer cell line [9] | LNCaP cell viability at higher concentrations [10] | adherent growth of androgen-stimulated LNCaP cells [10] | sensitivity of FLT3 internal tandem duplication (ITD) mutant to inhibition ([4]; Ba/F3 cells, relative to non-mutant)
CC1=C(O)C(=O)C=C2C1=CC=C1[C@@]2(C)CC[C@@]2(C)[C@@H]3C[C@](C)(C(=O)O)CC[C@]3(C)CC[C@]12C [celastrol] | inhibited colony size | inhibited anchorage-independent growth to a similar degree as the AR competitive antagonist bicalutamide (casodex) | invoked a broader gene expression program similar to that induced by androgen deprivation | significant bioactivity | lowered the protein levels | induce apoptosis | synergistically inhibit cell growth | Neither celastrol nor gedunin significantly competed | lowered the protein levels | induct apoptosis | markedly decrease LNCaP prostate cancer cell viability | inhibit adherent and anchorage-independent growth | –
CC(=O)O[C@@H]1C[C@H]2C(C)(C)C(=O)C=C[C@]2(C)[C@H]2CC[C@@]3(C)[C@H](c4ccoc4)OC(=O)[C@H]4O[C@]43[C@@]21C [gedunin] | inhibited colony size | inhibited anchorage-independent growth to a similar degree as the AR competitive antagonist bicalutamide (casodex) | invoked a broader gene expression program similar to that induced by androgen deprivation | – | lowered the protein levels | induce apoptosis | synergistically inhibit cell growth | Neither celastrol nor gedunin significantly competed | lowered the protein levels | induct apoptosis | markedly decrease LNCaP prostate cancer cell viability | inhibit adherent and anchorage-independent growth | increased sensitivity
